How the values were obtained:
[1] = system: minced distal large intestine tissue (crypts); experiment: Evaluation 2 of in vitro crypt isolation effect; type: cell-based, mice (C57B6/j); conditions: 37° C. 30 minutes
Experimental: Thereby, the crypts were isolated. […] Thereby, the tissue was fixed. A 50-μL portion was sampled therefrom and dropped onto dishes, and the number of crypts contained was counted using an optical microscope. The number of crypts was counted three times for each concentration, and the average was calculated therefrom.

[2] = system: large intestine tissue pieces (crypts); experiment: Evaluation 1 of in vitro crypt isolation effect; type: cell-based, mice (C57B6/j); conditions: 37° C. 30 minutes
Experimental: Eight-week-old male mice (C57B6/j, CLEA Japan, Inc.) were sacrificed by cervical dislocation and the whole large intestine was removed. […] The intestinal tract was longitudinally opened and 5-mm-long tissue pieces were obtained. The tissue pieces were placed in 1.5-mL microtubes each containing 1 mL of Hank's balanced salt solution. The tissue pieces were washed by stirring for 10 minutes with a microtube mixer (MT-400 available from TOMY SEIKO CO., LTD.). After washing, the tissue pieces were transferred to other 1.5-mL microtubes each containing 1 mL of Hank's balanced salt solution, and washed in the same manner.
The tissue pieces were transferred to 1.5-mL microtubes containing the compositions (C-1) to (C-6) and the comparative compositions (C′-1) to (C′-7) each in an amount of 1 mL and were allowed to stand at 37° C. for 30 minutes.
After 30 minutes, the tissue pieces were transferred to other 1.5-mL microtubes each containing 1 mL of Hank's balanced salt solution and stirred for five minutes with a microtube mixer. Thereby, the crypts were isolated. […] Thereby, the tissue was fixed. A 50-μL portion was sampled therefrom and dropped onto dishes, and the number of crypts contained was counted using an optical microscope. The number of crypts was counted three times for each concentration, and the average was calculated therefrom.
The presence of one or more crypts was considered that a sufficient embrittlement effect was obtained.

proximal large intestine = experiment: Evaluation 1 of in vivo epithelial detachment effect; parameters: species or system mice (C57B6/j); conditions: 8 mL at 50° C. over two minutes, once
From the text: A longitudinal 1-cm abdominal midline incision was made, and the proximal large intestine was exposed to the outside of the abdominal cavity. A small incision was made in the proximal large intestine 1 cm anal side from the cecum, and a catheter was inserted toward the anal. […] A small incision was made 1 cm anal side from the catheter insertion site, and another catheter was inserted toward the oral side. These two catheters allowed perfusion of the 1-cm-long intestinal tract. The catheters were each fixed with a thread from the outside of the intestinal tract, together with the vasculature, to cut off the blood flow in the 1-cm-long intestinal tract sandwiched between the two catheters.
Immediately after the injection of the biological tissue embrittling agents, 25 mL of Dulbecco's phosphate-buffered saline (without Ca and Mg) was continuously injected three times each over 45 seconds, whereby the crypts were detached. Then, 20 mL of Dulbecco's Modified Eagle's Medium, high glucose, (Sigma-Aldrich Cat #D5796) was injected to antagonize the biological tissue embrittling agents. […] The large intestine was longitudinally cut and flat opened, and was imaged with a fluorescent stereo microscope (Leica M165 FC) and an all-in-one fluorescence microscope (KEYENCE BZ-X800). The images were analyzed with ImageJ and the detached area was measured. […]

beagle dogs = conditions: Ca-EDTA compared with Ca-DTPA; cited from earlier work

O=C([O-])CN(CCN(CC(=O)O)CC(=O)O)CC(=O)[O-].[Na+].[Na+] [(Z′-1), disodium ethylenediaminetetraacetate]
Number of crypts ([1]; 3 mM, compositions (C-7) to (C-10), (C′-8)): 108.89
Number of crypts ([1]; 10 mM, compositions (C-11) to (C-14), (C′-9)): 169.56
Number of crypts ([2]; 2 mM, compositions (C-1), (C′-2)): 48.67
Number of crypts ([2]; 8 mM, compositions (C-2), (C′-3)): 156.33
Number of crypts ([2]; 16 mM, compositions (C-3), (C′-4)): 140
Number of crypts ([2]; 32 mM, compositions (C-4), (C′-5)): 129.33
Number of crypts ([2]; 64 mM, compositions (C-5), (C′-6)): 115.33
Number of crypts ([2]; 128 mM, compositions (C-6), (C′-7)): 95.67
Evaluation 1 of epithelial detachment effect Detached area (proximal large intestine; 230 mM, agents (M-1), (M′-2)): 30.2 mm^2
Evaluation 1 of epithelial detachment effect Detached area (proximal large intestine; 500 mM, agent (M′-3)): 66.0 mm^2

O=C([O-])CN(CCN(CC(=O)[O-])CC(=O)[O-])CCN(CC(=O)[O-])CC(=O)[O-].[Ca+2].[Na+].[Na+].[Na+] [Ca-DTPA]
safety of intravenous administration for one month (beagle dogs): no significant difference in safety

O=C(O)CN(CCN(CC(=O)O)CC(=O)O)CC(=O)O.[Ca] [Ca-EDTA]
safety of intravenous administration for one month (beagle dogs): no significant difference in safety
